In brackets after ≈: the same amount, converted by molar mass. Read-outs that look alike come from different tables or passages of the source.
How the values were obtained:
[1] = Wilcock et al., J Am Chem Soc 135:8488 (2013); cited from earlier work
yeast = details: in vitro studies, previously reported; cited from earlier work
[2] = Wilcock et al., J Am Chem Soc 135:8488 (2013); cited from earlier work; remark: listed apart in the source
human cells = details: in vitro studies, previously reported; cited from earlier work
Saccharomyces cerevisiae = assay: Broth microdilution assay (MIC) against Saccharomyces cerevisiae; assay type: cell-based; details: for MIC: broth microdilution, read-out: MIC S. cerevisiae
Protocol: (§1) With efficient access to this novel AmB chemotype, ureas AmBAU, AmBMU, and AmBCU were compared to AmB and a range of previously reported AmB derivatives in an in vitro antifungal and human cell toxicity screen. Yeast toxicity was measured with broth microdilution assays (MIC) against Saccharomyces cerevisiae. Human cell toxicity was studied by determining the amount of compound required to cause 90% hemolysis of human erythrocytes (EH90). […] Methyl esterification (AmBME) retains antifungal activity at 0.25 μM against S. cerevisiae, while decreasing hemolysis concentration to one third that seen with AmB. […] Hemolysis activity remained similar to AmBME and C41MeAmB. Bis-amino alkylated amide derivative AmBNR2 was previously shown to moderately improve the therapeutic index.
(§2) Each derivative proposed herein is tested for biological activity against both yeast and human cells to determine its therapeutic index. A broth microdilution experiment determines the MIC (minimum inhibitory concentration) of each derivative against S. cerevisiae and the clinically relevant C. albicans, thereby establishing the antifungal activity of each novel derivative. To test for toxicity against human cells, each compound is exposed to a hemolysis assay against red blood cells which determines the concentration required to cause 90% lysis of human red blood cells (EH90). Additionally, each compound is exposed to human primary renal tubule cells to determine the toxicity of each compound against kidney cells. These assays when compared against the known values of AmB against the same cell lines determine the improvement in therapeutic index of each compound.

[3] = tested on: human erythrocytes (red blood cells); assay: Hemolysis assay of human erythrocytes (EH90); assay type: cell-based
Protocol: as §1, §2

Candida albicans = assay: Broth microdilution MIC against C. albicans; assay type: cell-based
Protocol: Urea derivatives AmBAU, AmBMU, and AmBCU maintain potent antifungal activity ranging from 0.125 μM to 3 μM against S. cerevisiae. […] AmBCU required 324 μM to cause 90% hemolysis in red blood cells, more than 30× required by AmB. Encouraged by this initial therapeutic index screen the urea series was further tested against the clinically relevant fungal cell line Candida albicans. C. albicans is the most common human fungal infection. AmB inhibits yeast grown of C. albicans at 0.25 μM. Similar to the trend seen with S. cerevisiae, the potency of the urea derivatives increased with increasing amount of cationic character. AmBAU, AmBMU, and AmBCU require 0.25, 0.5, and 1 μM respectively (Table 2).
as §2, with “Additionally, each compound is exposed to human primary renal tubule cells to determine the toxicity of each compound against kidney cells. These assays when compared against the known values of AmB against the same cell lines determine the improvement in therapeutic index of each compound.” left out

[4] = Acute toxicity, single intravenous administration to healthy mice, lethality; assay type: in vivo; details: single intravenous 4 mg/kg
Protocol: FIG. 6 is a graph depicting lethality in healthy mice of single intravenous administration in the doses indicated of AmB, AmBMU, or AmBAU.
In a separate set of experiments, acute toxicity was evaluated by single intravenous administration of 1, 2, 4, 8, 16, 32, or 64 mg/kg AmB or its derivatives to healthy mice, followed by monitoring for lethality. […] AmBAU was drastically less toxic with >50% lethality not being reached until the 64 mg/kg dosage group.

CC1C=CC=CC=CC=CC=CC=CC=CC(OC2CC(N)C(O)C(C)O2)CC2OC(O)(CC(O)CC(O)C(O)CCC(O)CC(O)CC(=O)OC(C)C(C)C1O)CC(O)C2C(=O)O (stereo not shown) [C2′deOAmB]
ergosterol-binding ability [1]: retains ergosterol-binding ability | toxicity to yeast (yeast): toxic to yeast | binding to cholesterol [2]: shows no binding to cholesterol | toxicity to human cells (human cells): not human cells

CC(C)/C=C/[C@@H](CC1O[C@](O)(C[C@@H](O)C(C)C)C[C@H](O)[C@H]1C(=O)NCCN)OC1OC(C)C(O)C(N)C1O (stereo partly shown) [AmBAA]
MIC (Saccharomyces cerevisiae; Saccharomyces cerevisiae): 0.03 µM (≈ 0.0164 µg/mL) | EH90 red blood cells ([3]; human): 33.96 ± 8.85 µM

CC(C)/C=C/[C@H](O)CC1O[C@](O)(C[C@@H](O)C(C)C)C[C@H](O)[C@H]1C(=O)O (stereo partly shown) [AmdeB]
MIC (Saccharomyces cerevisiae; Saccharomyces cerevisiae): > 500 µM | cell-killing activity in yeast assay (Saccharomyces cerevisiae; in words): completely abolishes cell-killing activity | cell-killing activity in human cell assay [3]: completely abolishes cell-killing activity | EH90 red blood cells ([3]; human): >500 µM

COC(=O)[C@H]1C(C[C@H](/C=C/C(C)C)OC2OC(C)C(O)C(N)C2O)O[C@](O)(C[C@@H](O)C(C)C)C[C@@H]1O (stereo partly shown) [AmBME]
MIC (Saccharomyces cerevisiae; Saccharomyces cerevisiae): 0.25 µM (≈ 0.13 µg/mL) | hemolysis concentration relative to that seen with AmB [3]: one third | EH90 red blood cells ([3]; human): 30.67 ± 5.38 µM

CC(C)/C=C/[C@@H](CC1O[C@](O)(C[C@@H](O)C(C)C)C[C@H](O)[C@H]1C(=O)NCCn1cncn1)OC1OC(C)C(O)C(N(CCCN)CCCN)C1O (stereo partly shown) [AmBNR2]
MIC (Saccharomyces cerevisiae; Saccharomyces cerevisiae): 0.25 µM (≈ 0.178 µg/mL)

amphotericin B [AmB]
MIC C. albicans (Candida albicans): 0.25 µM | MIC (Saccharomyces cerevisiae): 0.5 µM | lethality [4]: died within seconds | EH90 red blood cells ([3]; amount of compound required to cause 90% hemolysis of human erythrocytes): 10.37 ± 1.17 µM | EH90 red blood cells ([3]; amount of compound required to cause 90% hemolysis of human erythrocytes, listed as Amphotericin B): 10.4 µM

— patent US20180273571A1, “CONCISE SYNTHESIS OF UREA DERIVATIVES OF AMPHOTERICIN B” (THE BOARD OF TRUSTEES OF THE UNIVERSITY OF ILLINOIS, priority 2015, published 2018)
